Assay results published in ChEMBL document CHEMBL5291721, “A preclinical secondary pharmacology resource illuminates target-adverse drug reaction associations of marketed drugs” (Nat Commun, 2023).

Assays:
Estrogen receptor beta = Estrogen receptor beta (Homo sapiens, UniProt Q92731)
B1 bradykinin receptor = target: T1, B1 bradykinin receptor (Homo sapiens, UniProt P46663)
T1 sequence (P46663 whole entry): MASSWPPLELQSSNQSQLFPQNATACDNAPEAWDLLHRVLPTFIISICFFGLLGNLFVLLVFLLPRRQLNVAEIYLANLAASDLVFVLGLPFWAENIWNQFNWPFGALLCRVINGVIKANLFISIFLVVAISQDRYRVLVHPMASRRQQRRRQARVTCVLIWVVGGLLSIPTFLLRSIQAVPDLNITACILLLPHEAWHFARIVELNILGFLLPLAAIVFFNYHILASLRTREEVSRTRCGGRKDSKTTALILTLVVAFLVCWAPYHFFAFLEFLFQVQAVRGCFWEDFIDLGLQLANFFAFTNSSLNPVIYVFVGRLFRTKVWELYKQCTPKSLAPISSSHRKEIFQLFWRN

Mu-type opioid receptor = Mu-type opioid receptor (Homo sapiens, UniProt P35372); test: biochemical; assay type: functional
D(1A) dopamine receptor = D(1A) dopamine receptor (Homo sapiens, UniProt P21728)
[1] = target: Sodium channel protein type 5 subunit alpha (Homo sapiens, UniProt Q14524); assay type: functional, cell-based
[2] = target: T2, Muscarinic acetylcholine receptor M5 (Homo sapiens, UniProt P08912)
T2 sequence (P08912 whole entry): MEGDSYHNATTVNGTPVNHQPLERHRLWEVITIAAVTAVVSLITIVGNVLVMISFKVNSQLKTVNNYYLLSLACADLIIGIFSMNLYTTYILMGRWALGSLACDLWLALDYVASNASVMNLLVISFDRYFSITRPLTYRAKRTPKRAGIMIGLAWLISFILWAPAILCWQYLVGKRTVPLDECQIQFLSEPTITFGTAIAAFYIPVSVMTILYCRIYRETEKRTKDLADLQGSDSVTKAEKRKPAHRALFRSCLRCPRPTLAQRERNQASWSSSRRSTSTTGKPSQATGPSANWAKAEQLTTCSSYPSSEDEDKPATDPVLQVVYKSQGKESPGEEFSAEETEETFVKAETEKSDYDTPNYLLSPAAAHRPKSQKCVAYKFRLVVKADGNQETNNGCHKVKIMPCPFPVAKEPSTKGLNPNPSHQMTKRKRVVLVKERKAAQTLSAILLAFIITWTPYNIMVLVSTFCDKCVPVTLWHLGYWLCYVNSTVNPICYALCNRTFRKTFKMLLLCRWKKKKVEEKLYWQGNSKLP

[3] = target: T3, 5-hydroxytryptamine receptor 1A (Homo sapiens, UniProt P08908)
T3 sequence (P08908 whole entry): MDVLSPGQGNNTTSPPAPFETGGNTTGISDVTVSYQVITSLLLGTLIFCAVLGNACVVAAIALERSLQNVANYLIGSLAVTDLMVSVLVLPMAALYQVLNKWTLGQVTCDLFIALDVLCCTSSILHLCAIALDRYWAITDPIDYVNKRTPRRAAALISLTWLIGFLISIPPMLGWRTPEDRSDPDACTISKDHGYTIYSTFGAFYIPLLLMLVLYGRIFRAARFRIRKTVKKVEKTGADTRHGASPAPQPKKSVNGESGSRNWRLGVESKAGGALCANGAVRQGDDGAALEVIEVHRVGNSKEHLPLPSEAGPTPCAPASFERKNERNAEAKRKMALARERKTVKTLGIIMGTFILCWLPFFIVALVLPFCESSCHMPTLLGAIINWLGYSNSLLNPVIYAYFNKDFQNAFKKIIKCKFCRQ

[4] = target: Synaptic vesicular amine transporter (Rattus norvegicus, UniProt Q01827); assay type: functional
[5] = target: 5-hydroxytryptamine receptor 2A (Homo sapiens, UniProt P28223); assay type: functional, cell-based
Glucocorticoid receptor = target: T4, Glucocorticoid receptor (Homo sapiens, UniProt P04150); assay type: functional
T4 sequence (P04150 whole entry): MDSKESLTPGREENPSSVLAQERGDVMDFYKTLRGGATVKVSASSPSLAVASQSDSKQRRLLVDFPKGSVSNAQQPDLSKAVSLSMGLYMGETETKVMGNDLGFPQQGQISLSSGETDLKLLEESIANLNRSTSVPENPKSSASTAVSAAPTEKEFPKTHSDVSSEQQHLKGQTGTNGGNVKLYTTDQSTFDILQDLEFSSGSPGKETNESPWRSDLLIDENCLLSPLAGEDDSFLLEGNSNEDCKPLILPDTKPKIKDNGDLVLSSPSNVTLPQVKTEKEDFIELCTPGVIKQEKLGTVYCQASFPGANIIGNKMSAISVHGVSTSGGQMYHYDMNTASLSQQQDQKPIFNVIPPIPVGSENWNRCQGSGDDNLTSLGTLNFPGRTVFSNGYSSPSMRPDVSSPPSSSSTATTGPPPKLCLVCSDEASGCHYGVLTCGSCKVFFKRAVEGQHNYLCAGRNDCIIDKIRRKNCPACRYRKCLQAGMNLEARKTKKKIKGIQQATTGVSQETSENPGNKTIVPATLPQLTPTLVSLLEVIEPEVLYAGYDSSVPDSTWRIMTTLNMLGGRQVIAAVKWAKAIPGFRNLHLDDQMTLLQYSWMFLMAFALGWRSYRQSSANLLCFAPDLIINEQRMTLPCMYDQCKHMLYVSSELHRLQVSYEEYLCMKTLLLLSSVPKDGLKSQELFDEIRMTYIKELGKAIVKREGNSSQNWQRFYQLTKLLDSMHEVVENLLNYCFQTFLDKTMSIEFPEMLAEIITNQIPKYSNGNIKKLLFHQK

[6] = target: T5, Peroxisome proliferator-activated receptor gamma (Homo sapiens, UniProt P37231); assay type: functional
T5 sequence (P37231 whole entry): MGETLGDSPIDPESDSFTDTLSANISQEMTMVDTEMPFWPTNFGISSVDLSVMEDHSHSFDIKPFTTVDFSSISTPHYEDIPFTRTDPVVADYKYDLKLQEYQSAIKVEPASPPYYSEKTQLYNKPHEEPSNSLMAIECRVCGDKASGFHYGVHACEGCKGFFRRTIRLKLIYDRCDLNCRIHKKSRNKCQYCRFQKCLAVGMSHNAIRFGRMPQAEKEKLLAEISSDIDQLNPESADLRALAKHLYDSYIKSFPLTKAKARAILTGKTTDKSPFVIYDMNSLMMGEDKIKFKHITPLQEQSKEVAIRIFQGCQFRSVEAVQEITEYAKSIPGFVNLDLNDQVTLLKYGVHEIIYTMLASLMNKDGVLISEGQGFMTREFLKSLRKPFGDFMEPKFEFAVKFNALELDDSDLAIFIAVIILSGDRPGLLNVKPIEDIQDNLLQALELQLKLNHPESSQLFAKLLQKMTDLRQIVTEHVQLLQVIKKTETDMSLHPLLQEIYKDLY
Also: assay procedure not described here.

Sequence of Synaptic vesicular amine transporter (Q01827 whole entry): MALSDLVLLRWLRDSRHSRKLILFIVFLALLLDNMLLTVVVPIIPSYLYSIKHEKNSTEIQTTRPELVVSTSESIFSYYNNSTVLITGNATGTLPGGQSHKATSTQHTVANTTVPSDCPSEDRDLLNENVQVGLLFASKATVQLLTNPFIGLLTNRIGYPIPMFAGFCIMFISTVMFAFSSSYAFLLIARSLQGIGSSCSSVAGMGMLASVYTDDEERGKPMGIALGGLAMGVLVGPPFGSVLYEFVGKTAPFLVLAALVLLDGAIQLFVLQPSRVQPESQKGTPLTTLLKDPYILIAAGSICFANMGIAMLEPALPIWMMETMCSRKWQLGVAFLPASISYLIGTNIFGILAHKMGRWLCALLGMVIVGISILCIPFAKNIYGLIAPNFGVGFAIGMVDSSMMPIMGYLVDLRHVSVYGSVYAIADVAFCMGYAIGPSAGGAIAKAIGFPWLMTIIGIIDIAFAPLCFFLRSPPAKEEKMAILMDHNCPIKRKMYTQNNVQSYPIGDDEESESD
Sequence of Sodium channel protein type 5 subunit alpha (Q14524 whole entry): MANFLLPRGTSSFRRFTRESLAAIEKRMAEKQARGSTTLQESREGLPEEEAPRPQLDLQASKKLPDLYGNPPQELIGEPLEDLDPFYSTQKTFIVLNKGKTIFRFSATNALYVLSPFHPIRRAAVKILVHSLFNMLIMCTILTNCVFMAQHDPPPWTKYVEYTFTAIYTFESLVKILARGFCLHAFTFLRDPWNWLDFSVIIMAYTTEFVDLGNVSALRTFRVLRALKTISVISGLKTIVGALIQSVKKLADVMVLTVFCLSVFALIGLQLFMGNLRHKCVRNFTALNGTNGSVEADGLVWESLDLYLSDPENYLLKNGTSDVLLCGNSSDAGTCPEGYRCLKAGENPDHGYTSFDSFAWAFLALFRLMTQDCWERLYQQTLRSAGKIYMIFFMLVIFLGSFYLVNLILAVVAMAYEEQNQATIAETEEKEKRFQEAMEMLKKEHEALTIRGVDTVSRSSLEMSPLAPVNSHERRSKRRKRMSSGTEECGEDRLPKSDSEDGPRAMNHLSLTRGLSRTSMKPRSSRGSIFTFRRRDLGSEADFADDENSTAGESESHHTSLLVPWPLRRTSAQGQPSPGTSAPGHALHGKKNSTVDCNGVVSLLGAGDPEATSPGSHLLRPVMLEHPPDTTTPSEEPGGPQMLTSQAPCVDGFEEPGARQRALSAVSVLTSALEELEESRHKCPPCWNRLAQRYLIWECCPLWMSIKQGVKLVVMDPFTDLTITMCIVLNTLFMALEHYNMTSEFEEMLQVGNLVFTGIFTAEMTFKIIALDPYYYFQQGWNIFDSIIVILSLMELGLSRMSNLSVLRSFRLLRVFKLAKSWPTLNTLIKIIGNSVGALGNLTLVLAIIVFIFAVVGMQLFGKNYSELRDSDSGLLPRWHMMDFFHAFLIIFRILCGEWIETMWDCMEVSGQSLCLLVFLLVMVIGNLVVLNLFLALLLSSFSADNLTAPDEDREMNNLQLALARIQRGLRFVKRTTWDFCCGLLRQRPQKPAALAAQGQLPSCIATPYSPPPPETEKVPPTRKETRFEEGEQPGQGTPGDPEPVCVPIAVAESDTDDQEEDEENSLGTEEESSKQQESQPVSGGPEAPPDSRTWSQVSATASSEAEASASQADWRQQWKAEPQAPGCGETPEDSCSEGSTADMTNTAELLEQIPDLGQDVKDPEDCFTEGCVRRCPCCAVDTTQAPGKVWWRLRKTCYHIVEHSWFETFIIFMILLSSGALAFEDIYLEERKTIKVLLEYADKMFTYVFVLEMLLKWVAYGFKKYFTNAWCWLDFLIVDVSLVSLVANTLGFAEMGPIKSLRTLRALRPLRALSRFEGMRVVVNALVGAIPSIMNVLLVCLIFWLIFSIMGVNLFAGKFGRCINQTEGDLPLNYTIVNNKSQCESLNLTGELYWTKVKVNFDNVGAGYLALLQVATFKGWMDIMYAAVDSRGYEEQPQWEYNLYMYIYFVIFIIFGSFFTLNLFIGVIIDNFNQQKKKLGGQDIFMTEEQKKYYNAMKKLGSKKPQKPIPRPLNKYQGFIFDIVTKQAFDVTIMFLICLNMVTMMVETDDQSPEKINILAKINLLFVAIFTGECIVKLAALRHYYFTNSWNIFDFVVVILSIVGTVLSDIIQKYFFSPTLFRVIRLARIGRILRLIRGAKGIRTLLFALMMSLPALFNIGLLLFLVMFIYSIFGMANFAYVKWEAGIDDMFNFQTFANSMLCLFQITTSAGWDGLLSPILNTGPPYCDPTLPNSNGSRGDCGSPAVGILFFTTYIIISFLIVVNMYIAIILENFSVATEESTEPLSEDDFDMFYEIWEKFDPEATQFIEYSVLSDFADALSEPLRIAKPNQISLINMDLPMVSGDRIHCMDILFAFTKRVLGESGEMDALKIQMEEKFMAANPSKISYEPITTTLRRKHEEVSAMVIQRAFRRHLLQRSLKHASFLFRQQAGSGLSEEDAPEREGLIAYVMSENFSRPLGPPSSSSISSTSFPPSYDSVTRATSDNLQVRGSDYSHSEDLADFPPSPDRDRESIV
Sequence of Estrogen receptor beta (Q92731 whole entry): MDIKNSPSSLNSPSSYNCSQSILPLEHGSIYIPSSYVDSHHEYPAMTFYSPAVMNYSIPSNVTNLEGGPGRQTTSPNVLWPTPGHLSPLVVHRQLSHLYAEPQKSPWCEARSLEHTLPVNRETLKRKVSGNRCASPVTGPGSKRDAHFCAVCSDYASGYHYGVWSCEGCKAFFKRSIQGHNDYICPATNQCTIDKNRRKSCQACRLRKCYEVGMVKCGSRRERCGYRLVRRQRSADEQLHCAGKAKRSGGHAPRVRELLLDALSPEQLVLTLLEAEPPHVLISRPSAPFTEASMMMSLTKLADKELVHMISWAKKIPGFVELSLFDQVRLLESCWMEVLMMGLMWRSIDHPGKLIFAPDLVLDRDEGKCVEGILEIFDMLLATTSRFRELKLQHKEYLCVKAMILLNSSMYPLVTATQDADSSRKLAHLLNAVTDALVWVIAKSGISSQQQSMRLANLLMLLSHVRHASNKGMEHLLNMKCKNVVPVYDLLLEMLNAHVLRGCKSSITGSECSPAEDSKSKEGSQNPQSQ
Sequence of 5-hydroxytryptamine receptor 2A (P28223 whole entry): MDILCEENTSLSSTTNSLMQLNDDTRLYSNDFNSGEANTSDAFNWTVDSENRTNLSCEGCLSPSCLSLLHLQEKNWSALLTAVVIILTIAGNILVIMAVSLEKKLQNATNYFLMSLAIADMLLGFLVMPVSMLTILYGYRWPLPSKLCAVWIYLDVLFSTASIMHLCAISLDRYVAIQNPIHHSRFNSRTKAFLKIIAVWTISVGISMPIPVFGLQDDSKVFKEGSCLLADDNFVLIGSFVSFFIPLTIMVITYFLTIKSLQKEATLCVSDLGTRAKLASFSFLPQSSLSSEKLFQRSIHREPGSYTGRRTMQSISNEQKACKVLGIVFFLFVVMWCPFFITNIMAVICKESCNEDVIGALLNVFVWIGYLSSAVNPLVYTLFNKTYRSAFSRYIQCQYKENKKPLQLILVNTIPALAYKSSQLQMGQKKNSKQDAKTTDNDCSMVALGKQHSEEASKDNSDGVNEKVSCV
Sequence of D(1A) dopamine receptor (P21728 whole entry): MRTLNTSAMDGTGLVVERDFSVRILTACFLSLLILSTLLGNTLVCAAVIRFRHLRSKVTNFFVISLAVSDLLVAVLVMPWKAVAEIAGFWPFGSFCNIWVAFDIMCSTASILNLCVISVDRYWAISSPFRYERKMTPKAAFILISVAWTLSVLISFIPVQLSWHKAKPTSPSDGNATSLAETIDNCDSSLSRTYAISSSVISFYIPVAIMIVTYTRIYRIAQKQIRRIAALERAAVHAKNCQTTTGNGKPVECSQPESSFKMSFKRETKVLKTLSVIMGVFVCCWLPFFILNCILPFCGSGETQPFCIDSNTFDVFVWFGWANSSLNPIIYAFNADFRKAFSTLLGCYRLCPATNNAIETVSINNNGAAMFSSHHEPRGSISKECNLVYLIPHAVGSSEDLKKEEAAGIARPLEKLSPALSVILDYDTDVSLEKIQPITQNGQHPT
Sequence of Mu-type opioid receptor (P35372 whole entry): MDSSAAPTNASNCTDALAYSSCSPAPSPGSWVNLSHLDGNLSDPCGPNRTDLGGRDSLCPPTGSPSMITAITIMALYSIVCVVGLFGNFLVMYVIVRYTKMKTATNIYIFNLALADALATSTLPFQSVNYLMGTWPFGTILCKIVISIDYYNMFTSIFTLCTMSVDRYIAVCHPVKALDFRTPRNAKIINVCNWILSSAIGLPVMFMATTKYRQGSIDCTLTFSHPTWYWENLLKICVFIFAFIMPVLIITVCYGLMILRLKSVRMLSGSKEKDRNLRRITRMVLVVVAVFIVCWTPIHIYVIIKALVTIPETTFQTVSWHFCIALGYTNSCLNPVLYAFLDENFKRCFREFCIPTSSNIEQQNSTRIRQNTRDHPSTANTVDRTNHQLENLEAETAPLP

Compound | AC50 (Estrogen receptor beta) | AC50 (B1 bradykinin receptor) | AC50 (Mu-type opioid receptor) | AC50 (D(1A) dopamine receptor) | AC50 [1] | AC50 [2] | AC50 [3] | AC50 [4] | AC50 [5] | AC50 (Glucocorticoid receptor) | AC50 [6]
CC1(C)S[C@@H]2[C@H](NC(=O)[C@H](N)c3ccc(O)cc3)C(=O)N2[C@H]1C(=O)O [AMOXICILLIN] | > 30 µM | > 30 µM | > 30 µM | > 10 µM | > 30 µM | > 10 µM | > 10 µM |  |  |  | 
Cc1ccc([C@@H]2O[C@H](CO)[C@@H](O)[C@H](O)[C@H]2O)cc1Cc1ccc(-c2ccc(F)cc2)s1 [CANAGLIFLOZIN ANHYDROUS] |  |  |  |  | > 50 µM |  |  | 20 µM |  |  | 
C=C(C)[C@@H]1CCC(C)=C[C@H]1c1c(O)cc(CCCCC)cc1O [CANNABIDIOL] |  |  |  |  | > 10 µM |  |  |  | 4.7 µM | > 30 µM | 
COC(=O)[C@H](c1ccccc1Cl)N1CCc2sccc2C1 [CLOPIDOGREL] | > 30 µM | > 30 µM | > 30 µM | > 10 µM |  | > 10 µM | > 10 µM |  |  | > 30 µM | > 30 µM
CNCC[C@H](Oc1cccc2ccccc12)c1cccs1 [DULOXETINE] |  |  |  |  | 5.3 µM |  |  | 1.4 µM |  |  | 
C[C@H]1Oc2cc(cnc2N)-c2c(nn(C)c2C#N)CN(C)C(=O)c2ccc(F)cc21 [LORLATINIB] |  |  |  |  | > 30 µM |  |  |  | > 30 µM | > 30 µM | > 30 µM
Cc1cnc(NC(=O)C2=C(O)c3ccccc3S(=O)(=O)N2C)s1 [MELOXICAM] | > 30 µM | > 30 µM |  | > 10 µM |  | > 10 µM | > 10 µM |  |  |  | 
CNCCC=C1c2ccccc2CCc2ccccc21 [NORTRIPTYLINE] |  |  | > 30 µM | 0.386 µM |  | 0.262 µM |  |  |  |  | 
CN(C)c1cc(CNCC(C)(C)C)c(O)c2c1C[C@H]1C[C@H]3[C@H](N(C)C)C(O)=C(C(N)=O)C(=O)[C@@]3(O)C(O)=C1C2=O [OMADACYCLINE] |  |  | > 30 µM |  |  | > 30 µM |  |  | > 30 µM |  | > 30 µM
CNC[C@H](O)c1cccc(O)c1 [PHENYLEPHRINE] | > 30 µM | > 30 µM | > 30 µM | > 10 µM | > 30 µM | > 10 µM | > 10 µM |  | > 30 µM |  | 
O=C1NC(=O)C(c2ccccc2)(c2ccccc2)N1 [PHENYTOIN] |  | > 30 µM |  |  | > 50 µM |  | > 10 µM |  |  | > 30 µM | > 30 µM
CC(C)COc1ccc(CNC(=O)N(Cc2ccc(F)cc2)C2CCN(C)CC2)cc1 [PIMAVANSERIN] |  |  |  |  |  |  |  | 3.1 µM |  |  | 
CC(C)C[C@H](CN)CC(=O)O [PREGABALIN] | > 30 µM | > 30 µM | > 30 µM |  |  |  | > 10 µM |  | > 30 µM | > 30 µM | > 30 µM
NC(=O)c1ncn([C@@H]2O[C@H](CO)[C@@H](O)[C@H]2O)n1 [RIBAVIRIN] |  |  |  |  | > 50 µM |  |  | > 30 µM |  |  | 
O=C(Nc1c(Cl)cncc1Cl)c1ccc(OC(F)F)c(OCC2CC2)c1 [ROFLUMILAST] |  |  | > 30 µM |  | > 50 µM |  |  | 12.1 µM | > 30 µM |  | 
CCCN(CCC)CCc1cccc2c1CC(=O)N2 [ROPINIROLE] | > 30 µM | > 30 µM | > 30 µM | > 10 µM |  |  | 8.15 µM |  | 7.3 µM | > 30 µM | > 30 µM
CC(C)N(CCCCOCC(=O)NS(C)(=O)=O)c1cnc(-c2ccccc2)c(-c2ccccc2)n1 [SELEXIPAG] |  |  | > 30 µM |  | 45 µM |  |  | > 30 µM | 16 µM |  | 
CC(=O)S[C@@H]1CC2=CC(=O)CC[C@]2(C)[C@H]2CC[C@@]3(C)[C@@H](CC[C@@]34CCC(=O)O4)[C@H]12 [SPIRONOLACTONE] |  | > 30 µM |  | > 10 µM |  |  | > 10 µM |  |  | > 30 µM | > 30 µM
NC(=O)NS(=O)(=O)c1ccc(N)cc1 [SULFACARBAMIDE] |  |  |  |  | > 50 µM |  |  | > 30 µM |  |  | 
CCCCCCCCNC(C)C(O)c1ccc(SC(C)C)cc1 (stereo not given) [SULOCTIDIL] |  |  |  |  | 7.7 µM |  |  | 0.0013 µM |  |  | 
CCCCNc1ccc(C(=O)OCCN(C)C)cc1 [TETRACAINE] |  | > 30 µM |  | > 10 µM |  | > 10 µM | > 10 µM |  |  |  | 
CC1(C)O[C@@H]2[C@@H](CO[C@@]3(COS(N)(=O)=O)OC(C)(C)O[C@@H]23)O1 [TOPIRAMATE] | > 30 µM | > 30 µM |  | > 10 µM |  | > 10 µM | > 10 µM |  |  |  | 
